Data from the NIST ThermoML archive (doi:10.1016/j.fluid.2014.12.037).
Numbers after ± are expanded uncertainties.

Legend:
[1] = Molar enthalpy of transition or fusion; settings: Crystal; DSC
[2] = Crystal; DTA

For `N=C(N)N.O=[N+]([O-])O` [guanidine nitrate], the “Molar enthalpy of transition or fusion” value [1] was 6.04 ± 0.146 kcal/mol and the Normal melting temperature [2] was 214.02 ± 2 °C.
